Source: ChEMBL document CHEMBL5137081, “N-Heterocyclic 3-Pyridyl Carboxamide Inhibitors of DHODH for the Treatment of Acute Myelogenous Leukemia” (J Med Chem, 2022)
pIC50: −log10 of the molar value.

Key:
[1] = Oral bioavailability in C57BL/6 mouse at 10 mg/kg measured upto 24 hrs by LC-MS/MS analysis; type: ADME, organism-based; settings: in vivo
[2] = Half life in Sprague-Dawley rat at 10 mg/kg, po or 2 mg/kg, iv measured upto 24 hrs by LC-MS/MS analysis; type: ADME, organism-based; settings: in vivo
[3] = target: Dihydroorotate dehydrogenase (quinone), mitochondrial (Homo sapiens, UniProt Q02127)
Description: Binding affinity to His fused human DHODH expressed in Escherichia coli assessed as dissociation half life by surface plasmon resonance assay

[4] = Toxicity in NSG mouse xenografted with human MOLM-13 cells assessed as change in body weight at 10 to 20 mg/kg, po qd administered for 5 days; type: organism-based; settings: in vivo, 120 h, dose 10-20 mg/kg, time 5 day
[5] = Tmax in C57BL/6 mouse at 10 mg/kg, po or 2 mg/kg, iv measured upto 24 hrs by LC-MS/MS analysis; type: ADME, organism-based; settings: in vivo
MOLM-13 [6] = assay: Antitumor activity against human MOLM-13 cells xenografted in NSG mouse assessed as tumor growth inhibition at 20 mg/kg, po qd administered for 5 days relative to control; type: functional; settings: MOLM-13, 120 h, time 5 day, read-out: TGI
[7] = Inhibition of monkey DHODH; design: species or system Macaca mulatta
[8] = Volume of distribution at steady state in C57BL/6 mouse at 10 mg/kg, po or 2 mg/kg, iv measured upto 24 hrs by LC-MS/MS analysis; type: ADME, organism-based; settings: in vivo
[9] = Intrinsic clearance in dog hepatocytes measured per 10^6 cells; type: ADME, cell-based, Canis lupus familiaris, Hepatocyte
Cytochrome P450 2C9 = Cytochrome P450 2C9 (Homo sapiens, UniProt P11712); assay: Inhibition of CYP2C9 in human liver microsomes incubated for 10 mins by LC-MS/MS analysis; type: ADME, Microsome
[10] = Intrinsic clearance in mouse hepatocytes measured per 10^6 cells; type: ADME, cell-based, Hepatocyte
MOLM-13 [11] = assay: Antitumor activity against human MOLM-13 cells xenografted in NSG mouse assessed as tumor growth inhibition at 10 mg/kg, po qd administered for 5 days relative to control; type: functional; settings: MOLM-13, 120 h, time 5 day, read-out: TGI
[12] = Half life in C57BL/6 mouse at 10 mg/kg, po or 2 mg/kg, iv measured upto 24 hrs by LC-MS/MS analysis; type: ADME, organism-based; settings: in vivo
[13] = Metabolic stability in monkey liver microsome assessed as intrinsic clearance pretreated for 5 mins followed by NADPH addition and measured upto 60 mins by HPLC-MS/MS analysis; type: ADME, Macaca mulatta; settings: rhesus monkey, liver microsomes; time < 65 min; read-out: CLH
Cytochrome P450 3A4 = Cytochrome P450 3A4 (Homo sapiens, UniProt P08684); assay: Inhibition of CYP3A4 in human liver microsomes using midazolam as substrate measured after 5 mins by LC-MS/MS analysis; type: ADME, Microsome
Cytochrome P450 2C19 = Cytochrome P450 2C19 (Homo sapiens, UniProt P33261); assay: Inhibition of CYP2C19 in human liver microsomes incubated for 10 mins by LC-MS/MS analysis; type: ADME, Microsome
MOLM-13 [14] = assay: Antitumor activity against human MOLM-13 cells xenografted in NSG mouse assessed as tumor growth inhibition at 1.9 mg/kg, po qd administered for 5 days relative to control; type: functional; settings: time 5 day
[15] = Toxicity in NSG mouse xenografted with human MOLM-13 cells assessed as change in body weight at 1.5 to 7.9 mg/kg, po qd administered for 5 days; type: organism-based; settings: in vivo, 120 h, dose 1.5-7.9 mg/kg, time 5 day
MOLM-13 [16] = assay: Antitumor activity against human MOLM-13 cells xenografted in NSG mouse assessed as tumor growth inhibition at 7.5 mg/kg, po qd administered for 5 days relative to control; type: functional; settings: time 5 day
MDR1 = assay: Efflux ratio of apparent permeability across basolateral to apical side over apical to basolateral side in dog MDCK-MDR1 cells; type: ADME, cell-based, Canis lupus familiaris
MOLM-13 [17] = assay: Antitumor activity against human MOLM-13 cells xenografted in NSG mouse assessed as tumor growth inhibition at 3.75 mg/kg, po qd administered for 5 days relative to control; type: functional; settings: time 5 day

Chain of Dihydroorotate dehydrogenase (quinone), mitochondrial (Q02127 whole entry): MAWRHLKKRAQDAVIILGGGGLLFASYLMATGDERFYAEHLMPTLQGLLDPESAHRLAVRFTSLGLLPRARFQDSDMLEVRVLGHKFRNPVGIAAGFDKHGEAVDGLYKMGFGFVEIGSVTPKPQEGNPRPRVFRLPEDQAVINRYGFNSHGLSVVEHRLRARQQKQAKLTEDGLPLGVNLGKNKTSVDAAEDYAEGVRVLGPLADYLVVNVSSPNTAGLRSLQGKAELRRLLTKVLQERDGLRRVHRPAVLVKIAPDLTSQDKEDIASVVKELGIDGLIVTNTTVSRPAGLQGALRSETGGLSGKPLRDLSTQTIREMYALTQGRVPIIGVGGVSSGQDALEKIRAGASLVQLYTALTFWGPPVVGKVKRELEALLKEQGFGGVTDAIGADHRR
Chain of Cytochrome P450 3A4 (P08684 whole entry): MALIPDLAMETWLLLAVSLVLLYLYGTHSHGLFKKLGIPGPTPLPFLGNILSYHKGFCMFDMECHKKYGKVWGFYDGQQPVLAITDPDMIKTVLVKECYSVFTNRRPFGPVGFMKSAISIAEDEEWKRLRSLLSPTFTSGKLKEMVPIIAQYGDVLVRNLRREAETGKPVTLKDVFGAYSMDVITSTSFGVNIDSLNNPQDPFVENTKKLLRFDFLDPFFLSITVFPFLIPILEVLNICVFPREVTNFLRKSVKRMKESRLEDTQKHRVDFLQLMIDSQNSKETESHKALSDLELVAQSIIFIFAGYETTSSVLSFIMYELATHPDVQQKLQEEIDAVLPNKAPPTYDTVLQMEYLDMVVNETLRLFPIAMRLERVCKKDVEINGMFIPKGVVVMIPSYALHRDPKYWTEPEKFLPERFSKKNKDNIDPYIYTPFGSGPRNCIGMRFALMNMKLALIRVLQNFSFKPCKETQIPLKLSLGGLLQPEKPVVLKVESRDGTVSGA
Chain of Cytochrome P450 2C9 (P11712 whole entry): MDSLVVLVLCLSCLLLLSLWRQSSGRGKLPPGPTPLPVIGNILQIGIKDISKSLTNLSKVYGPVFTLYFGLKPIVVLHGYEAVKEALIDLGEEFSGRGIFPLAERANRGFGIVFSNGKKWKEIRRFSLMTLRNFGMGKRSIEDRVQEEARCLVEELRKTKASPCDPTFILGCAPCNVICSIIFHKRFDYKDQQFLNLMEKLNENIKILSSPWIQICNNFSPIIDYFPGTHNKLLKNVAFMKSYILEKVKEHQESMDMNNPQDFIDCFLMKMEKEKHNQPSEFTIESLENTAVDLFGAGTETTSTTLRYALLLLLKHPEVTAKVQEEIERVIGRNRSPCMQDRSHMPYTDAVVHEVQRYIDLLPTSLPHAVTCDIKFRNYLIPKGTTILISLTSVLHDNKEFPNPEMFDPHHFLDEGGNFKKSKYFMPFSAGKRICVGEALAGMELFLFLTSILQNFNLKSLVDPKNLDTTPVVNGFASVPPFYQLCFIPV
Chain of Cytochrome P450 2C19 (P33261 whole entry): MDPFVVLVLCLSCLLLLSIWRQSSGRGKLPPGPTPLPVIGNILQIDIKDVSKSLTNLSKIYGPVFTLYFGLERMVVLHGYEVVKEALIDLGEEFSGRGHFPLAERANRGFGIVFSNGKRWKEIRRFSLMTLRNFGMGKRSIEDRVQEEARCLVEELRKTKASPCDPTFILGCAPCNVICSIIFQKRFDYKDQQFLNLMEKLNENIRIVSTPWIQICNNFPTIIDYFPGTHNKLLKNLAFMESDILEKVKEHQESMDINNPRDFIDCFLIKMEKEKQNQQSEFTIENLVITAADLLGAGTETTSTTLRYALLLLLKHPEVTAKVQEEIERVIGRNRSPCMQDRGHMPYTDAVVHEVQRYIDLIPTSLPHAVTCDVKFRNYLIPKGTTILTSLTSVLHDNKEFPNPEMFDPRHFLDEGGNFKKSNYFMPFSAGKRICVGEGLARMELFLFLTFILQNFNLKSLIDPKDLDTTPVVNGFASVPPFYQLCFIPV

SMILES | bioavailability [1] [%] | half-life [2] [h] | T1/2 [3] [h] | Tmax [5] [h] | pIC50 [7] | Vdss [8] [L/kg] | CLH [9] [µL/min/1e6 cells] | pIC50 (Cytochrome P450 2C9) | CLH [10] [µL/min/1e6 cells] | half-life [12] [h] | CLint scaled [13] [mL/min/kg] | pIC50 (Cytochrome P450 3A4) | pIC50 (Cytochrome P450 2C19) | other results
CCn1c(CO)nn(-c2nc(O[C@@H](C)C(F)(F)F)c(C(=O)Nc3c(C)ccnc3Cl)cc2F)c1=O | 103 | 2 | 0.5 | 0.42 | 8.80 | 1.3 | 8.3 | < 5.00 | 5.7 | 2.3 | 4 | < 5.00 | < 5.00 | Activity [4]: Non-Toxic; inhibition in vivo at 20 mg/kg (MOLM-13 [6]): 60%; inhibition in vivo at 10 mg/kg (MOLM-13 [11]): 44%
CCn1c(CO)nn(-c2nc(O[C@@H](C)C(F)(F)F)c(C(=O)Nc3c(C)cnc(OC)c3Cl)cc2F)c1=O | 110 | 4 | 0.65 | 1 | 9.27 | 2.4 | 86 | < 5.00 | 5.5 | 5 | 5.3 | < 5.00 | < 5.00 | TGI (MOLM-13 [14]): 71%; Activity [15]: Non-Toxic; TGI (MOLM-13 [16]): 79%; efflux ratio (MDR1): > 30; TGI (MOLM-13 [17]): 76%
